Data on 15 molecules can be found in US20120129842A1, “BISTHIAZOLE INHIBITORS OF PRO-MATRIX METALLOPROTEINASE ACTIVATION” (priority 2010, published 2012).

Assay [1] addresses T1, proMMP9(20-445;ΔFnII) (SEQ ID NO:6) (Homo sapiens, UniProt P14780, DEL216-390).
T1 construct: start methionine (N); made in house; host or cells: E. coli BL21(DE3) RIL
T1 sequence (P14780 with tags, fused parts or gaps DEL216-390): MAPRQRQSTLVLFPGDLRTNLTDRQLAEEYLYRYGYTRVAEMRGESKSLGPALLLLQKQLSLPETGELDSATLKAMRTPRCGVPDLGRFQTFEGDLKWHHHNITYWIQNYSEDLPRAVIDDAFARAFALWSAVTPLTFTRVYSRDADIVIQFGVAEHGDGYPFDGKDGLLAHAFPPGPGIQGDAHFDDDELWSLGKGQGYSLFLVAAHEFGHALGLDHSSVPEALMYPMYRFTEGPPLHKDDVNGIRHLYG
The experiment in a line: ThermoFluor binding assay with proMMP9(20-445;ΔFnII). The following applies: pH 7.0. As to the method: (§1) The ThermoFluor® (TF) assay is a 384-well plate-based binding assay that measures thermal stability of proteins (Biomol Screen 2001, 6, 429-40; Biochemistry 2005, 44, 5258-66). The experiments were carried out using instruments available from Johnson & Johnson Pharmaceutical Research & Development, LLC. TF dye used in all experiments was […] (1,8-ANS) (Invitrogen: A-47).
(§2) Compounds were arranged in a pre-dispensed plate (Greiner Bio-one: 781280), wherein compounds were serially diluted in 100% DMSO across 11 columns within a series. Columns 12 and 24 were used as DMSO reference and contained no compound. For multiple compound concentration-response experiments, the compound aliquots ([…]) were robotically predispensed directly into black 384-well polypropylene PCR microplates (Abgene: TF-0384/k) using a Cartesian Hummingbird liquid handler (DigiLab, Holliston, Mass.). Following compound dispense, protein and dye solutions were added to achieve the final assay volume of 3 μL. The assay solutions were overlayed with 1 μL of silicone oil (Fluka, type DC 200: 85411) to prevent evaporation.
(§3) Assay plates were robotically loaded onto a thermostatically controlled PCR-type thermal block and then heated from 40 to 90° C. at a ramp-rate of 1° C./min for all experiments. Fluorescence was measured by continuous illumination with UV light (Hamamatsu LC6) supplied via fiber optics and filtered through a band-pass filter (380-400 nm; >6 OD cutoff). Fluorescence emission of the entire 384-well plate was detected by measuring light intensity using a CCD camera (Sensys, Roper Scientific) filtered to detect 500±25 nm, resulting in simultaneous and independent readings of all 384 wells. A single image with 20-sec exposure time was collected at each temperature, and the sum of the pixel intensity in a given area of the assay plate was recorded vs temperature and fit to standard equations to yield the Tm (J Biomol Screen 2001, 6, 429-40).
(§4) Thermodynamic parameters necessary for fitting compound binding for each proMMP were estimated by differential scanning calorimetry (DSC) and from ThermoFluor® data. The heat capacity of unfolding for each protein was estimated from the molecular weight and from ThermoFluor® dosing data.
The protein sample preparations included a desalting buffer exchange step via a PD-10 gravity column (GE Healthcare). The desalting buffer exchange was performed prior to diluting the protein to the final assay concentration of 2.8 μM proMMP9(20-445;ΔFnII) (SEQ ID NO:6). The concentration of proMMP9(20-445;ΔFnII) (SEQ ID NO:6) was determined spectrophotometrically based on a calculated extinction coefficient of ε280=39880 M^−cm^−1, a calculated molecular weight of 28.2 kDa, and calculated pI of 5.5. ThermoFluor® reference conditions were define as follows: 80 μg/mL (2.8 μM) proMMP9(20-445;ΔFnII) (SEQ ID NO:6), 50 μM 1,8-ANS, pH 7.0 Buffer (50 mM HEPES pH 7.0, 100 mM NaCl, 0.001% Tween-20, 2.5 mM MgCl2, 300 μM CaCl2). The thermodynamic parameters for proMMP9(20-445;ΔFnII) (SEQ ID NO:6) are as follows: Tm (° C.)=72 (+/−0.1), ΔUH(Tm) (cal mol^−1)=160000(+/−5000), ΔUS(Tm) (cal mol^−1 K^−1)=434, ΔUCp (cal mol^−1 K^−)=2400.

The target in assay [2] is T2, proMMP9(67-444;ΔFnII) (SEQ ID NO:5) (Homo sapiens, UniProt P14780, DEL216-390).
T2 construct: start methionine (N); made in house; host or cells: E. coli BL21(DE3) RIL
T2 sequence (P14780 with tags, fused parts or gaps DEL216-390): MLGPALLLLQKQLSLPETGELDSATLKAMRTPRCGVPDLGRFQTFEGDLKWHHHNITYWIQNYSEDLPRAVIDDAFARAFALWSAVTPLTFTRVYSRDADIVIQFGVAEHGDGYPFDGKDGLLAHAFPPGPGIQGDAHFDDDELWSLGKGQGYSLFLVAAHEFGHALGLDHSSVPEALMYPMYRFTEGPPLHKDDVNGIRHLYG
The experiment in a line: ThermoFluor binding assay with proMMP9(67-444;ΔFnII). The following applies: pH 7.0. As to the method: as §1, §2, §3, §4
The protein sample preparations had to include a desalting buffer exchange step via a PD-10 gravity column (GE Healthcare). The desalting buffer exchange was performed prior to diluting the protein to the final assay concentration of 3.5 μM proMMP9(67-444;ΔFnII) (SEQ ID NO:5). The concentration of proMMP9(67-444;ΔFnII) (SEQ ID NO:5) was determined spectrophotometrically based on a calculated extinction coefficient of ε280=33900 M^−1cm^−1, a calculated molecular weight of 22.6 kDa, and calculated pI of 5.20. ThermoFluor® reference conditions were defined as follows: 80 μg/mL (3.5 μM) proMMP9(67-444;ΔFnII) (SEQ ID NO:5), 50 μM 1,8-ANS, pH 7.0 Buffer (50 mM HEPES pH 7.0, 100 mM NaCl, 0.001% Tween-20, 2.5 mM MgCl2, 300 μM CaCl2). The thermodynamic parameters for proMMP9(67-444;ΔFnII) (SEQ ID NO:5) are as follows: Tm (° C.)=63 (+/−0.1), ΔUH(Tm) (cal mol^−1)=105000(+/−5000), ΔUS(Tm) (cal mol^−1 K^−1)=[…], ΔUCp (cal mol^−1 K^−1)=2000.
In general terms: DSF heats the sample and reads unfolding from a dye or from intrinsic fluorescence.

For assay [3], the target named is proMMP13(1-268) (SEQ ID NO:7) (Homo sapiens, UniProt P45452). The experiment in a line: ThermoFluor binding assay with proMMP13(1-268). Further details: 6xHis (C); made in house. The following applies: pH 7.0. The protocol:
as §1, §2, §3, §4
The proMMP13(1-268) (SEQ ID NO:7) protein sample preparations included a desalting buffer exchange step via a PD-10 gravity column (GE Healthcare). The desalting buffer exchange was performed prior to diluting the protein to the final assay concentration of 3.5 μM. The concentration of proMMP13(1-268) (SEQ ID NO:7) was estimated spectrophotometrically based on a calculated extinction coefficient of ε280=37000 M^−1cm^−1, a calculated molecular weight of 30.8 kDa, and calculated pI of 5.33. ThermoFluor® reference conditions were defined as follows: 100 μg/mL proMMP13(1-268) (SEQ ID NO:7), 25 μM 1,8-ANS, pH 7.0 Buffer (50 mM HEPES pH 7.0, 100 mM NaCl, 0.001% Tween-20, 2.5 mM MgCl2, 300 μM CaCl2). The thermodynamic parameters for proMMP13(1-268) (SEQ ID NO:7) are as follows: Tm (° C.)=67 (+/−0.1), ΔUH(Tm) (cal mol^−1)=107000(+/−5000), ΔUS(Tm) (cal mol^−1 K^−1)=318, ΔUCp (cal mol^−1 K^−1)=2600.

For assay [4], the target named is T3, full-length proMMP9(1-707) (SEQ ID NO:1) (Homo sapiens, UniProt P14780, R574P).
T3 construct: made in house; host or cells: HEK293 (proMMP9, secreted); E. coli (MMP3)
T3 sequence (P14780 20-707 R574P): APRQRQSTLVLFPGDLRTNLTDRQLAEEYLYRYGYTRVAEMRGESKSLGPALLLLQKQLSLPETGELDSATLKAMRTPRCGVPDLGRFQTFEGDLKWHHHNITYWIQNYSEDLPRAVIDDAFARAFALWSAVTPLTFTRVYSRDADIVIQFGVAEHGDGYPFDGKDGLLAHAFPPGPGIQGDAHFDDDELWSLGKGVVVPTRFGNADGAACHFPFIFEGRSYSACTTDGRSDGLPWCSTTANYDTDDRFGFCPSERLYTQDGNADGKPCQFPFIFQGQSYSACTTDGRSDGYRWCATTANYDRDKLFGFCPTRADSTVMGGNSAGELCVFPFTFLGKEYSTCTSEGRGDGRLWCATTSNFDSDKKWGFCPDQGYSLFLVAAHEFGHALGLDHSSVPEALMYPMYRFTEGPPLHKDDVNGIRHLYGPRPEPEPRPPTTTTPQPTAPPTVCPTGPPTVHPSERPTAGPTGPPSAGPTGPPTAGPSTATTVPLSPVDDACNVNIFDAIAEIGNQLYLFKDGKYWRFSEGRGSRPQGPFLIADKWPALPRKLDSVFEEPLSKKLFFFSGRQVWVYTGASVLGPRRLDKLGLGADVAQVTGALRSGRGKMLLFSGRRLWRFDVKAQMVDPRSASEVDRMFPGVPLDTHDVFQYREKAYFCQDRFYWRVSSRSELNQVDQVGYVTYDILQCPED
The experiment in a line: proMMP9/MMP3 P126 Activation Assay. It is filed as biochemical. The following applies: 20 nM proMMP9, 20 nM MMP3, 80 min 37° C. The protocol:
The reaction volume was 50 μL. […] Reactivity of residual MMP3 towards P-126 substrate was minimal under these conditions.

Where a name gives a salt, the structure may show the parent alone. A value given as a limit tells only on which side of the number the result lay.

By Kd is commonly meant the concentration at which binding is half-saturated. A higher Kd goes with weaker binding. As for `CC(=O)Nc1nc(C)c(-c2csc(Nc3cccc4c3OCCO4)n2)s1` [Example 19, N-[2-(2,3-Dihydro-benzo[1,4]dioxin-5-ylamino)-4′-methyl-[4,5′]bithiazolyl-2′-yl]-acetamide], the results for the Kd in assay [1], in assay [2] and in assay [3] were 17 µM, 11 µM and 62 µM, respectively.
On the same counts, the results for `CCN(CC)S(=O)(=O)c1ccc(OC)c(Nc2nc(-c3sc(N)nc3C)cs2)c1` [Example 21, 3-(2′-Amino-4′-methyl-[4,5′]bithiazolyl-2-ylamino)-N,N-diethyl-4-methoxy-benzenesulfonamide.HBr] are 9.6 µM, 2.9 µM and 1.7 µM.
For the molecule `COc1ccc(-c2ccccc2)cc1Nc1nc(-c2sc(N)nc2C)cs1` [Example 23, N^2-(4-Methoxy-biphenyl-3-yl)-4′-methyl-[4,5′]bithiazolyl-2,2′-diamine.HBr], the Kd was found to be 12 µM in assay [1], 15 µM in assay [2] and 0.98 µM in assay [3].
The matching figures for `COc1ccc(C)cc1Nc1nc(-c2sc(N)nc2C)cs1` [Example 24, N^2-(2-Methoxy-5-methyl-phenyl)-4′-methyl-[4,5′]bithiazolyl-2,2′-diamine.HBr]: 8.6 µM, 2.3 µM and 25 µM.
Take `COc1ccc(C(=O)NCCN2CCCCC2)cc1Nc1nc(-c2sc(NC(C)=O)nc2C)cs1` [Example 58, 3-(2′-Acetylamino-4′-methyl-[4,5′]bithiazolyl-2-ylamino)-4-methoxy-N-(2-piperidin-1-yl-ethyl)-benzamide.TFA]: the Kd in assay [1] was 19 µM; in assay [2], 6.5 µM; in assay [3], greater than 95 µM.
On the same counts, the results for `CNC(=O)c1ccc(OC)c(Nc2nc(-c3sc(NC(C)=O)nc3C)cs2)c1` [Example 65, 3-(2′-Acetylamino-4′-methyl-[4,5′]bithiazolyl-2-ylamino)-4-methoxy-N-methyl-benzamide.TFA] are 3 µM, 2.8 µM and 7.8 µM.
The matching figures for `CCOc1ccc(-c2ncco2)cc1Nc1nc(-c2sc(NC(C)=O)nc2C)cs1` [Example 78, N-[2-(2-Ethoxy-5-oxazol-2-yl-phenylamino)-4′-methyl-[4,5′]bithiazolyl-2′-yl]-acetamide.TFA]: 15 µM, 0.48 µM and 2.9 µM.
On the same counts, the results for `CCOC(=O)c1ccc(OCC)c(Nc2nc(-c3sc(C)nc3C)cs2)c1` [Example 82, 3-(2′,4′-Dimethyl-[4,5′]bithiazolyl-2-ylamino)-4-ethoxy-benzoic acid ethyl ester.HBr] are 15 µM, 3.5 µM and 13 µM.
In the case of `COc1ccc(C(N)=O)cc1Nc1nc(-c2sc(N3CCN(C)CC3)nc2C)cs1` [Example 93, 4-Methoxy-3-[4′-methyl-2′-(4-methyl-piperazin-1-yl)-[4,5′]bithiazolyl-2-ylamino]-benzamide.TFA], the Kd in assay [1] worked out at 0.74 µM; in assay [2], 2.5 µM; in assay [3] it was 16 µM.
One may read the IC50 as the concentration at which inhibition is half-maximal. High values mean lower potency, low ones higher potency. As to `Cc1nc(-c2cnccn2)sc1-c1csc(Nc2cc(C(N)=O)ccc2OC(C)C)n1` [Example 145], the Kd in assay [1] turned out to be 0.13 µM; in assay [2] it was 0.65 µM. Besides, in assay [4], the IC50 stood at 0.78 µM.
On the same counts, the results for `COc1ccncc1Nc1nc(-c2sc(C)nc2C)cs1` [Example 151, N-(4-Methoxypyridin-3-yl)-2′,4′-dimethyl-[4,5′-bithiazol]-2-amine] are 3.7 µM, 0.57 µM and 0.41 µM.
As to `Cc1nc(C)c(-c2nc(Nc3cc(S(N)(=O)=O)ccc3OC(C)C)sc2C)s1` [Example 152, 4-Isopropoxy-3-((2′,4′,5-trimethyl-[4,5′-bithiazol]-2-yl)amino)benzenesulfonamide], the Kd in assay [1] was 5.7 µM; in assay [2], 6.4 µM. The same molecule displayed an IC50 in assay [4] of 4.7 µM.
On the same counts, the results for `Cc1nc(C)c(-c2nc(Nc3cc(C(N)=O)ccc3OC(C)C)sc2C)s1` [Example 153, 4-Isopropoxy-3-((2′,4′,5-trimethyl-[4,5′-bithiazol]-2-yl)amino)benzamide] are 1.6 µM, 4.5 µM and 1.4 µM.
The matching figures for `CCSc1ccc(S(N)(=O)=O)cc1Nc1nc(-c2sc(C)nc2C)cs1` [Example 154, 3-((2′,4′-Dimethyl-[4,5′-bithiazol]-2-yl)amino)-4-(ethylthio)benzenesulfonamide]: 2.2 µM, 2 µM and 2.6 µM.
On the same counts, the results for `COc1ccncc1Nc1nc(-c2sc(N3CCN(C)CC3)nc2C)cs1` [Example 155, N-(4-Methoxypyridin-3-yl)-4′-methyl-2′-(4-methylpiperazin-1-yl)-[4,5′-bithiazol]-2-amine.TFA] are 1.9 µM, 0.34 µM and 0.29 µM.
